The results in this text go back to article PMC3368886, “ATPase Cycle and DNA Unwinding Kinetics of RecG Helicase” (PLoS ONE, 2012).

Some results are limits rather than exact numbers.

In test [1] the target is T1, RecG (Thermotoga maritima, UniProt Q9WY48).
T1 construct: made in house
T1 sequence (Q9WY48 1-780): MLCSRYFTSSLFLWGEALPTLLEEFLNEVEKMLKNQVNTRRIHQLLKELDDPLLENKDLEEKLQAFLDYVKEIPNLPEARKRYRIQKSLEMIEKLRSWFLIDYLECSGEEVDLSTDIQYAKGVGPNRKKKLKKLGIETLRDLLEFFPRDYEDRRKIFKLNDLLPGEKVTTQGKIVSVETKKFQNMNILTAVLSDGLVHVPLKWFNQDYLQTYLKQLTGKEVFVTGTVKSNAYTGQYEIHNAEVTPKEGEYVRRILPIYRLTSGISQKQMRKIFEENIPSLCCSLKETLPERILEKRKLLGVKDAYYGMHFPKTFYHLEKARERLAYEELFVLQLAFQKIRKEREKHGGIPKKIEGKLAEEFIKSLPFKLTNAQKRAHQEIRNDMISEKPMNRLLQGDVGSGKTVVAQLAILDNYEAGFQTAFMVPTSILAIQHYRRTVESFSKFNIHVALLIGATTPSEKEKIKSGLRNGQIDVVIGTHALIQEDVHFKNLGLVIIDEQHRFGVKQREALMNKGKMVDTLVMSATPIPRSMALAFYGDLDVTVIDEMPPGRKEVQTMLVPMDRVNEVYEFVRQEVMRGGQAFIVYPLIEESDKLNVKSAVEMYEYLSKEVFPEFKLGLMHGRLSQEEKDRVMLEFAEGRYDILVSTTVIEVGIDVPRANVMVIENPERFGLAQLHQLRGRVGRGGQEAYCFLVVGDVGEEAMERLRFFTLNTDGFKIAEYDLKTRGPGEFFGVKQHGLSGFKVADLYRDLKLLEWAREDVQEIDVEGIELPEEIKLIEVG
In words: Steady-state ATPase rate measurements with phosphate biosensor MDCC-PBP. To be noted: for Ki: 10 µM ATP, varying inhibitor; for tightness of binding (competitive inhibition): result in words. The test is classed as biochemical. An excerpt: Steady-state measurements were made to gain an overall assessment of the reaction and the affinities of various nucleotides before investigating the individual steps in the ATPase cycle. A two-strand DNA junction, which contains two 20-bp regions of complementary and non-complementary sequences (A40:B40 Figure 1 and Table S1), was used in all these measurements. This forms a Y-shape structure and RecG translocates one single-stranded arm, but then remains bound to the end of the junction still hydrolyzing ATP [10].
All reactions with RecG and DNA were done at 20°C in a buffer containing 50 mM Tris⋅acetate (pH 8.0), 30 mM potassium acetate, 3 mM magnesium acetate and 1 mM DTT. ATPase measurements using MDCC-PBP were taken in the presence of a Pi mop, as described above. Steady-state ATPase measurements were taken in a solution (60 µl) at 20°C, containing 10 nM RecG, 500 nM DNA junction (A40∶B40, see Table S1) and 10 µM MDCC-PBP with varying nucleotide concentrations as substrate or inhibitor [23].

Test [2] concerns the target T2, RecG⋅DNA(A40:B40) (Thermotoga maritima, UniProt Q9WY48).
T2 construct: made in house
T2 sequence (Q9WY48 1-780): T1 sequence (Q9WY48 1-780)
Kind of test: Stopped-flow mant fluorescence: mant nucleotide binding to RecG⋅DNA, pseudo-first-order. As for the experimental part: MantATP binding to RecG⋅DNA(A40:B40) was measured under pseudo-first-order conditions, that is mantATP in large excess over the protein. Using the stopped-flow apparatus, several concentrations of mantATP were rapidly mixed with RecG⋅DNA and fluorescence followed with time. Each trace was fitted by a single exponential (Figure 3A) and the concentration dependence of the observed rate constants were fit well by a hyperbola (Figure 3B). […] As mantATP is also hydrolyzed, the rate of the forward reaction needs to be included, in this case limited by the cleavage step 2, as described later. The fit gives 1/K 1a as 24 (±4) µM, k +1b + k −1b + k +2 as 26.1 (±1.8) s^−1 and the intercept gives k −1b + k +2 as <1 s^−1. Given that k +2 is 0.2 s^–1 (see below), k −1b is <0.8 s^−1. Potentially, an alternative explanation for such a hyperbolic relationship could be preferential binding of either the 2′- or 3′-isomer of mantATP and then isomerization of the non-favored isomer. However, the observed rates in these measurements were several orders of magnitude faster than the likely isomerization rate. In order to assess whether the two isomers of mantATP and their interconversion are factors in any fluorescence traces for mantATP, an equivalent measurement was made using 3′-mant-2′-deoxyATP.
Figure 3 MantATP binding to RecG⋅DNA. MantATP at the micromolar concentrations shown was mixed in the stopped flow apparatus with 0.5 µM RecG and 2.5 µM DNA Junction (A40:B40) at 20°C in the buffer described in materials and methods. Individual traces (offset from each other) were fitted to single exponentials and the dependence of the rate constants on concentration was then fitted by a hyperbola. The points shown are averages of at least 3 measurements. The fit gives 1/K 1a as 24 (±4) µM and k +1b + k− 1b + k +2 as 26.1 (±1.8) s^−1 and the intercept was <1 s^–1 (Scheme in Figure 2B).
MantADP binding to RecG⋅DNA complex was measured under pseudo-first order conditions by stopped-flow fluorescence.
Figure 5 MantADP binding kinetics to RecG⋅DNA. MantADP at various concentrations was mixed in the stopped flow apparatus with 0.5 µM RecG and 2.5 µM DNA (A40:B40) under the conditions of Figure 4. Traces (not shown) were fitted by single exponentials. The rate constants are shown as a function of concentration and the best linear fit, gives a slope of 1.1 (±0.4) µM^−1s^−1 and an intercept of <1 s^−1.
(§1) Stopped-flow experiments were performed in a HiTech SF61DX2 apparatus (TgK Scientific Ltd, Bradford-on-Avon, UK) with a mercury-xenon light source and HiTech KinetAsyst 3 or Kinetic Studio 1 software. For MDCC-PBP fluorescence, the excitation wavelength used was 436 nm and a 455 nm cut-off filter (Schott glass) used to collect emitted light. The signal was calibrated using known concentrations of Pi. The solutions contained the Pi mop, to minimize phosphate contamination and comprising 0.01 unit ml^−1 bacterial purine nucleoside phosphorylase and 200 µM 7-methylguanosine. For mant fluorescence, 366 nm was used to excite and a 400 nm cut-off filter (Schott glass) used to collect light. Measurements of Cy3 fluorescence used 547 nm excitation and a 570 nm cut-off filter. In experiments described, the quoted concentrations are those in the mixing chamber, except where stated. Data were fitted to theoretical curves using the HiTech software or Grafit.

For test [3], the target named is T2, RecG⋅DNA(A40:B40). In words: Single turnover mant fluorescence, excess RecG⋅DNA over mantATP. To be noted: excess RecG⋅DNA(A40:B40). The test is classed as biochemical. As for the experimental part:
Extra information relating to changes in a single ATPase cycle can be obtained by mixing excess RecG⋅DNA(A40:B40) with mantATP (Figure 4A). […] The first change in fluorescence is presumably due to binding. After fitting to a double exponential, the observed rate constant for the initial change was linearly dependent on RecG concentration over the small range possible (0.5 µM –2.5 µM), limited by protein precipitation at higher concentrations. Due to the low concentrations, a hyperbolic dependence would not be observed. The observed rate constant of the second increase in fluorescence, 0.22 (±0.05) s^−1 (Figure 4A), was independent of RecG concentration. This second phase is likely to be due to the cleavage step, leading to the formation of bound mantADP.
Figure 4 Kinetic measurement of mantATP with excess of RecG and DNA: binding, hydrolysis and Pi release. The concentrations for all experiments were 0.5 µM mantATP, 2.5 µM RecG, 5 µM DNA (A40:B40) and 10 µM MDCC-PBP (for Pi measurement). All measurements were carried out at 20°C in the buffer described in Materials and Methods. (A) Time course of mant fluorescence (solid line), mantADP formation (circles) and Pi release (dashed line), measured as described in materials and methods. […] (B) Simulation of these time courses, based upon a global model for a single turnover of mantATP as described in the text. (C) The time course of mant fluorescence upon mixing 0.5 µM mantATP and 2.5 µM RecG with 5 µM DNA junction (A40:B40) after a first mixing of 5 µM RecG and 1 µM mantATP and aging for 1 s.
as §1

Test [4] concerns the target T1, RecG. In words: Titrations of RecG into fluorescent nucleotides in the absence of DNA. In kind it is binding. As for the experimental part:
The two phases of this fluorescence increase with excess RecG⋅DNA would therefore relate to formation of bound mantATP (1.5-fold intensity increase relative to free nucleotide) and bound mantADP (4.9-fold). This interpretation was supported by titrations of RecG into the fluorescent nucleotides in the absence of DNA.
Steady-state fluorescence was measured using a Cary Eclipse fluorimeter (Varian) with a xenon light source. Absorbance spectroscopy was performed using a Beckman DU640 spectrophotometer.

Test [5] deals with T1, RecG. Kind of test: Phosphate-water oxygen exchange during hydrolysis. The test is classed as biochemical. As to conditions: DNA present (A40∶B40), γ-18O3 nucleotide, 25°C. From the text: In order to get information about the reverse of cleavage step 2 (scheme in Figure 2A), phosphate-water oxygen exchange measurements were done using (γ-^18O3)mantATP. Intermediate exchange can occur between terminal oxygens of the nucleotide and water during hydrolysis, giving information about the value of k +3 /k −2, as previously described. In this case, (γ-^18O3)mantATP was used as substrate and partial hydrolysis occurred in the presence of RecG⋅DNA, as described in the materials and methods section. The Pi had very similar distribution of oxygen-18 as with (γ-^18O3)mantATP, consistent with essentially little reversal of the cleavage step (k +3 /k −2≥9). This is consistent with a rapid release of Pi.
For intermediate exchange during ATP hydrolysis, 0.5 µM RecG and 1 mM (γ-^18O3)ATP or (γ-^18O3)mantATP were incubated for 10 min (+1 µM DNA A40∶B40, Table S1) or 20 min (- DNA) at 25°C in a volume of 100 µl in the buffer described below. Pi was analyzed for distribution of different ^18O-labeled species on a mass spectrometer as described previously, [37] except that during purification, the ^18O-labeled Pi was detected by MDCC-PBP, rather than radioactive tracers.
Supplementary file pone.0038270.s005.pdf: Table S2 Oxygen exchange during ATP or mantATP hydrolysis by RecG: distributions of oxygen-18 in the Pi product. Experiments were performed as described in Materials and Methods. The data were corrected for isotopic enrichment of the starting nucleotide, 93% for (γ-^18O3)mantATP and 98% for (γ-^18O3) ATP. […] Each distribution is the average of three mass spectral assays. Thus the distributions are for the product Pi as though the starting enrichment was 100%. In all cases there was very little oxygen exchange as shown by the large peak of (^18O3)Pi, in which all three γ-oxygens of ATP are retained. The distributions were then used to compute the ratio of rate constants for Pi release (k +3) and on-enzyme ATP resynthesis (k −2) as in Figure 2 [14], [37].

Setting [6] is: 500 nM DNA junction (A40:B40), 20°C.
Setting [7] is: 20°C, 10 nM RecG, 500 nM DNA junction (A40:B40).

The molecule `Nc1ncnc2c1ncn2[C@@H]1O[C@H](COP(=O)(O)OP(=O)(O)NP(=O)(O)O)[C@@H](O)[C@H]1O` [AMPPNP] registered a Ki on RecG [1] (setting [6]) of 44000 nM. Further, on RecG [1], the “tightness of binding (competitive inhibition)” value is on record as “bound weakly”.

For the molecule `Nc1ncnc2c1ncn2[C@@H]1O[C@H](CO[P@](=O)(O)O[P@](=O)(O)O[P@@](=O)(O)S)[C@@H](O)[C@H]1O` [ATPγS], on RecG [1] (setting [6]), the Ki stood at 900 nM. For the same molecule, the “tightness of binding (competitive inhibition)” value on RecG [1] is “bound tightly”. The rate of hydrolysis at RecG [1] (slowly hydrolyzed analogue) is 0.1 s⁻¹.

For `CNc1ccccc1C(=O)O[C@H]1C[C@H](n2cnc3c(N)ncnc32)O[C@@H]1COP(=O)(O)OP(=O)(O)O` [Mant-deoxyADP], the Ki on RecG [1] (setting [6]) came out at 100 nM.

Take `CNc1ccccc1C(=O)O[C@H]1C[C@H](n2cnc3c(N)ncnc32)O[C@@H]1COP(=O)(O)OP(=O)(O)OP(=O)(O)O` [Mant-deoxyATP, 3′-mant-2′-deoxyATP]: at RecG [1] (setting [7]), the K m is on record as 3.1 (±1.4) µM and the k cat is given as 1.3 (±0.5) s^−1.

`CNc1ccccc1C(=O)O[C@H]1[C@@H](O)[C@H](n2cnc3c(N)ncnc32)O[C@@H]1COP(=O)(O)OP(=O)(O)O` [mantADP] registered a Ki on RecG [1] (setting [6]) of 30 nM. Moreover, the “k +4 (mantADP dissociation rate constant, intercept)” value on RecG⋅DNA(A40:B40) [2] (20°C, linear fit) was less than 1 s⁻¹. The molecule further registered a Kd on RecG⋅DNA(A40:B40) [2] (mantADP with RecG⋅DNA, used as model assumption) of less than 50 nM. Further, the “increase in fluorescence on binding to RecG⋅DNA” value on RecG⋅DNA(A40:B40) [2] (same conditions as hydrolysis and Pi release measurements) worked out at 4.5 fold. Further, at RecG⋅DNA(A40:B40) [3], the “fluorescence intensity increase of bound nucleotide relative to free nucleotide” value turned out to be 4.9 fold. For the same molecule, the “increase in fluorescence on titration with RecG” value at RecG [4] is recorded as 4.8 fold.

As for (γ-^18O3)mantATP, the “k +3 /k −2” value on RecG [5] was no less than 9.
